According to patent US9365534B2, “Arylated camphenes, processes for their preparation and uses thereof” (Yissum Research Development Company of the Hebrew …, priority 2009, dated 2016):

Biological target: human CB2 receptor (Homo sapiens (Human), UniProt P34972)
Test: Membrane [35S]GTPγS binding assay
Assay type: biochemical
Protocol: Human CB2 expressing CHO-K1 membranes (5 μg per incubation mixture) were diluted in 50 mM Tris-HCl (pH 7.5) and 0.5 mM EDTA and added to HU compounds in a pre-mixed incubation cocktail. Final incubation concentrations were 55 mM Tris-HCl (pH 7.4), 1 mM EDTA, 100 mM NaCl, 5 mM MgCl2, 0.5% BSA, 50 μM GDP, 0.2 nM [^35S]GTPγS (PerkinElmer) with varied HU compound concentration and 5 μg membrane. Incubations were continued for 60 minutes at 30° C. in a shaking water bath. Assays were terminated by addition of 2 ml ice cold wash buffer (50 mM Tris-HCl, pH 7.5 and 5 mM MgCl2) and filtration through pre-soaked GF/C filters (Whatman), followed by two further washes. adioactivity was determined as described for competition binding assays.
Data was analyzed using the Prism 4.02 programme (GraphPad Software, San Deigo, Calif., USA). IC50 and EC50 values, as determined from sigmoidal curves, were generated from drug concentrations plotted in log scale. […] It is possible to display data as an average, plus or minus the standard error of the mean in log form, however, this is not easily interpreted or compared to other values. It was therefore elected to calculate the 95% confidence interval for the mean value in log form and then convert the lower limit, mean and upper limit into the molar (linear) scale. […] Two-tailed t-tests for statistical analysis between enantiomeric pairs of compounds were performed for CB2 Ki values. The Pearson value, an indication of linearity, was determined for Ki and IC50 or EC50 results obtained for CB2 receptors in binding, cAMP or GTPγS experiments, respectively.

## CCCCCCC(C)(C)c1cc(OC)c(C2=C[C@H]3CC[C@]2(CO)C3(C)C)c(OC)c1 [HU-910, (1S,4R)-(2-(2,6-dimethoxy-4-(2-methyloctan-2-yl)phenyl)-7,7-dimethylbicyclo[2.2.1]hept-2-en-1-yl)methanol]
  EC50: 26.4 nM
read-out: [35S]GTPγS Emax
  Emax: 121 ± 7%
